# Calls of active or inactive are those of the source. The calls are words filed in the database; no cut-off is given here.
# What was measured:
# [1] = biological target: T1, Peroxisome proliferator-activated receptor delta (Homo sapiens) (UniProt Q03181); test: Agonist activity at GAL4 DNA binding domain fused PPARdelta (unknown origin) at 0.25 to 25 uM by FRET-based assay
# T1 sequence (whole entry): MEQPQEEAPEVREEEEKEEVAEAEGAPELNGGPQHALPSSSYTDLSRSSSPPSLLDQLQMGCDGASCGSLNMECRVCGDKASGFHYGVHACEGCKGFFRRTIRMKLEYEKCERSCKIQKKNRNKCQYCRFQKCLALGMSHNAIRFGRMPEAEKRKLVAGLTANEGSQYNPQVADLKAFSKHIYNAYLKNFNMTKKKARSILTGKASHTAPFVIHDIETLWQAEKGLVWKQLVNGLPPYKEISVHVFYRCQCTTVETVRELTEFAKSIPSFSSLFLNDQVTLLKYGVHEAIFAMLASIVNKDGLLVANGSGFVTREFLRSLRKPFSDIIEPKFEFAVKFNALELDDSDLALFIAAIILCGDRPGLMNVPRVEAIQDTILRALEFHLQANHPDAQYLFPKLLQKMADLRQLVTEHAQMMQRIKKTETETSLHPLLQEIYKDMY
# [2] = biological target: T2, Thyroid hormone receptor beta (Homo sapiens) (UniProt P10828); test: Agonist activity at GAL4 DNA binding domain fused thyroid hormone receptor beta (unknown origin) at 0.25 to 25 uM by FRET-based assay
# T2 sequence (whole entry): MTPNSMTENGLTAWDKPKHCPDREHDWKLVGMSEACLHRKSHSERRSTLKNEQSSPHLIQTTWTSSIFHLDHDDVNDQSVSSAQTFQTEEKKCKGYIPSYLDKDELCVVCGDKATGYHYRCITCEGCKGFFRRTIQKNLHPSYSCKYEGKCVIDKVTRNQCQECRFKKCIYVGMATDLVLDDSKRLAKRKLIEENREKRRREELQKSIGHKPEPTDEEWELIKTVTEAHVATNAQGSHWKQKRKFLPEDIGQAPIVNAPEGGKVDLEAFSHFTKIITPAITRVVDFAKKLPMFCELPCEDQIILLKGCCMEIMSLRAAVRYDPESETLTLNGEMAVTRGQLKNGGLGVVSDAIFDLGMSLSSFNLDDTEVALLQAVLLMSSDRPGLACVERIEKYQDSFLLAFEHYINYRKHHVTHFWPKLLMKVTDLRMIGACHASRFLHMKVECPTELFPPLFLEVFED
# Cytochrome P450 1A2 = biological target: T3, Cytochrome P450 1A2 (Homo sapiens, UniProt P05177); test: Inhibition of human recombinant CYP1A2 up to 100 uM preincubated for 10 mins followed by NADPH addition and measured after 10 to 30 mins by P450-Glo luminescence assay; type: ADME; conditions: recombinant enzyme
# T3 sequence (P05177 whole entry): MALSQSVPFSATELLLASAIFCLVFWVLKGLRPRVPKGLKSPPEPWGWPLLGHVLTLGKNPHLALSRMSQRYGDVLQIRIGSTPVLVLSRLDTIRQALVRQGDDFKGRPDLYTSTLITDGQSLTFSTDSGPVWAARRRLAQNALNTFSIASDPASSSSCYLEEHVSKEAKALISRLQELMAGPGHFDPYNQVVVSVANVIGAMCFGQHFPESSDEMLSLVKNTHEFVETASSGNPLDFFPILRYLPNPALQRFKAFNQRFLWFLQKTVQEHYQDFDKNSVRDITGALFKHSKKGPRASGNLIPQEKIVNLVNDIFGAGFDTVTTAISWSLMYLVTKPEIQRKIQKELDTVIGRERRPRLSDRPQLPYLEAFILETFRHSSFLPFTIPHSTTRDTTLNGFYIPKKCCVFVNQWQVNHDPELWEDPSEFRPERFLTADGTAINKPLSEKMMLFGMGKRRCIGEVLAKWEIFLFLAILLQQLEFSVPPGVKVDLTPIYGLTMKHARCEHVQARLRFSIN
# Mus musculus [3] = test: Memory enhancement effect in C57BL/6 mouse assessed as time spent with moved object at 1 ng administered as dorsal hippocampal infusion by novel object recognition test; type: functional
# Mus musculus [4] = test: Memory enhancement effect in C57BL/6 mouse assessed as time spent with moved object at 0.5 mg/kg, ip by novel object recognition test; type: functional
# Mus musculus [5] = test: Memory enhancement effect in C57BL/6 mouse assessed as time spent with moved object at 5 mg/kg, ip by novel object recognition test; type: functional
# Mus musculus [6] = test: Memory enhancement effect in C57BL/6 mouse assessed as time spent with novel object at 0.5 mg/kg, ip by novel object recognition test; type: functional
# Mus musculus [7] = test: Memory enhancement effect in C57BL/6 mouse assessed as time spent with moved object at 0.5 mg/kg, po administered via gavage by object recognition test; type: functional
# Mus musculus [8] = test: Memory enhancement effect in C57BL/6 mouse assessed as time spent with novel object at 5 mg/kg, po administered via gavage by novel object recognition test; type: functional
# Estrogen receptor [9] = biological target: T4, Estrogen receptor (Homo sapiens, UniProt P03372)
# T4 sequence (P03372 whole entry): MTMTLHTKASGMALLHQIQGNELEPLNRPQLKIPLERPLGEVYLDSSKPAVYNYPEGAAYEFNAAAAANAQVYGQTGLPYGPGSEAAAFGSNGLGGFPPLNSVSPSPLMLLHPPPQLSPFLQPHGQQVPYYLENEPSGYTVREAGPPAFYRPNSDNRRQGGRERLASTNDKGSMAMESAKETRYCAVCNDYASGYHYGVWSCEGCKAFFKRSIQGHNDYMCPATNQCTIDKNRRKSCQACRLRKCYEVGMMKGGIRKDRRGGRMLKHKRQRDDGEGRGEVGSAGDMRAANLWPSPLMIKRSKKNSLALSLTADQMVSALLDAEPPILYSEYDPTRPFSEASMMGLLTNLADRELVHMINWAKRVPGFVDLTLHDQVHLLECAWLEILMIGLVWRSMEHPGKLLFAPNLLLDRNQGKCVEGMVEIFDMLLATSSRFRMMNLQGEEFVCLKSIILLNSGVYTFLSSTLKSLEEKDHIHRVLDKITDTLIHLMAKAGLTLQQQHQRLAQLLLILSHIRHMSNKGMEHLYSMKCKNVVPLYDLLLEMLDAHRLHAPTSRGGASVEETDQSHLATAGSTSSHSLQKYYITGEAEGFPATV
# Estrogen receptor [10] = biological target: T4, Estrogen receptor; remark: listed apart in the source
# Cytochrome P450 2C9 = Cytochrome P450 2C9 (Homo sapiens, UniProt P11712)
# Cytochrome P450 2C9, sequence (P11712 whole entry): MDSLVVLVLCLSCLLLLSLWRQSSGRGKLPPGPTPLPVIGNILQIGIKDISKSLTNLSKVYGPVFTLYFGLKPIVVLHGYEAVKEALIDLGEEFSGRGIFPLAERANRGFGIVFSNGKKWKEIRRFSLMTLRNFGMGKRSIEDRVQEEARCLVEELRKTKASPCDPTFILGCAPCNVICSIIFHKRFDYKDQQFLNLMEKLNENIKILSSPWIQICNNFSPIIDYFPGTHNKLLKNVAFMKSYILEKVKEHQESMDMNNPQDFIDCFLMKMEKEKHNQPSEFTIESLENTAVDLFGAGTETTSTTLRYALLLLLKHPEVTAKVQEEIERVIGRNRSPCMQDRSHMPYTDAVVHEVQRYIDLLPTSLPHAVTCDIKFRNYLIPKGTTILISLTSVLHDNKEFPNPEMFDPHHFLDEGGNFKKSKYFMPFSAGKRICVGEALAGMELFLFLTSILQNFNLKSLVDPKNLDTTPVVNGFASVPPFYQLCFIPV
# Description: Inhibition of human recombinant CYP2C9 preincubated for 10 mins followed by NADPH addition and measured after 10 to 30 mins by P450-Glo luminescence assay
# Estrogen receptor [11] = biological target: T4, Estrogen receptor; test: cell-based
# Description: Agonist activity at GAL4 DNA binding domain fused full-length chimeric estrogen receptor alpha (unknown origin) by FRET-based assay
structure (smiles),measurement,setting,value
OC[C@H]1CC[C@H](c2ccc(O)cc2)CC1,Activity,[1],inactive
same,Activity,[2],inactive
same,inhibition (INH),Cytochrome P450 1A2,Not Active
same,Time,Mus musculus [3],3.4 s
same,Time,Mus musculus [4],3.93 s
same,Time,Mus musculus [5],2.78 s
same,Time,Mus musculus [6],4.17 s
same,Time,Mus musculus [7],3.65 s
same,Time,Mus musculus [8],2.36 s
same,EC50,Estrogen receptor [9],0.289 µM
same,EC50,Estrogen receptor [10],> 10 µM
same,EC50,Cytochrome P450 2C9,34 µM
same,EC50,Estrogen receptor [11],0.93 µM
